Consider three molecules from patent US8852552B2, “Agents and methods for visualizing analytes” (priority 2010, dated 2014).

In experiment [1] the test system is Peptide (NH2-)FLNCCPGCCMEP(-COOH) [SEQ ID No 6]. As to the kind of experiment: Complex formation with tetracysteine-tagged peptide in MOPS/MES/EDT buffer, LC-MS analysis. In kind it is binding. The note with it: probe in DMSO + 1 mM peptide, stirred 10-30 minutes. How it is done: Experiments were performed according to Nature Protocols Vol.3 No.9, 1527-1534, (Adams & Tsien) with minor modifications.
Materials: Peptide (NH2—)[…](—COOH) [SEQ ID No 6], M.w: 1316.63, supplied by INNOVAGEN, Sweden, MOPS sodium salt FW: 231.2 CAS [71119-22-7], MES sodium salt FW: 164.16 CAS [19767-45-4], and EDT FW:94.2 CAS [540-63-6] were used as received.
HPLC analyses employed a Waters Alliance 2795 LC system, equipped with an XBridge C18 3.0×50 mm 3.5 μm column. The mass detector had polarity ES+/polarity ES-. Solvents, A: 0.1 M NH3 in milliQ water, B: MeOH. Gradient, A: 95% 0.1 min, 0.1-4 min A:95% to B:100%, 4.0-4.6 min B:100%.
The radiodetector employed was a Raytest Star (solid cell). Chromatography with radiodetection was performed using a Kromasil C18, 5μ 250×10 mm column, and an isocratic eluent composed of 35% acetonitrile in 50 mM ammonium acetate, at a flow rate of 2.0 mL/min.
To this solution was added 200 μL of 1 mM PSMXB-4 (in DMSO). […] The reaction mixture was stirred for 30 minutes. […] The mass peaks corresponded to dianionic and trianionic species.
To this solution was added 200 μL of 1 mM PSMXB-6 (in DMSO). […] The reaction mixture was stirred for 30 minutes. […] The mass peak corresponded to the dianionic species.
The reaction mixture is stirred for 10 minutes. […] The mass peak corresponded to the dianionic species. […] HPLC purification allowed isolation of the pure, tritiated complex.

Experiment [2] deals with unrelated peptide with N-terminal biotin. Put plainly: Surface plasmon resonance, reference channel with unrelated biotinylated control peptide. In kind it is binding. The note with it: 100 μM injected. The source says:
The biotinylated peptide was immobilized on a sensor chip (Sensor Chip SA BiaCore) by non-covalent capture to streptavidin according to manufacturer instructions. An unrelated peptide with N-terminal biotin was coupled to a reference channel. […] At the end of the injection phase, the sensor surface was washed (Wash arrow FIG. 1A) with […] pH7.4, 0.15 M NaCl.
(In general: Surface plasmon resonance follows binding to a sensor surface in real time, without labels.)

`O=c1ccc2c(-c3ccc(F)cc3)c3ccc(O)c([As]4SCCS4)c3oc-2c1[As]1SCCS1` [PSMXB-4, 2,5-di-(1,3,2-dithiarsolan-2-yl)-9-(4-fluorophenyl)-6-hydroxy-3-fluorone]: the “complex formation with peptide by LC-MS” value in experiment [1] was “mass spectrum consistent with the complex”.
On to “2,5-di-(1,3,2-Dithiarsolan-2yl)-9(4-fluorophenyl)-6-[^3H3]methoxy-3-fluorone [6-[^3H3CO]-PSMXB-6]”, for which the “complex formation with peptide by LC-MS” value in experiment [1] was “complete conversion into the complex”.
Take `COc1ccc2c(-c3ccc(F)cc3)c3cc([As]4SCCS4)c(=O)cc-3oc2c1[As]1SCCS1` [PSMXB-6, 2,5-di-(1,3,2-Dithiarsolan-2yl)-9(4-fluorophenyl)-6-methoxy-3-fluorone]: the “interaction with unrelated control peptide” value in experiment [2] is on record as “No interaction was detected”. Besides, the “complex formation with peptide by LC-MS” value in experiment [1] is “mass spectrum consistent with the complex”.
